Literature values, collected in PMC9603901, “Therapeutic Potential of Antimicrobial Peptide PN5 against Multidrug-Resistant E. coli and Anti-Inflammatory Activity in a Septic Mouse Model” (Microbiology Spectrum, 2022).
In brackets after ≈: the same amount, converted by molar mass.

How the values were obtained:
Set-up in all cases: method as in Asan hospital; key to susceptibility category: S: susceptible; R: resistant; I: intermediate
MDR E. coli ASEC 1 = conditions: ref Asan hospital, cited from earlier work; for MIC: ASEC 1 (carbapenemase NDM-1), resistance information of clinical isolate; for susceptibility category: ASEC 1
MDR E. coli ASEC 2 = conditions: ref Asan hospital, cited from earlier work; for MIC: ASEC 2 (NDM-7), resistance information of clinical isolate; for susceptibility category: ASEC 2
MDR E. coli ASEC 3 = conditions: ref Asan hospital, cited from earlier work; for MIC: ASEC 3 (NDM-5), resistance information of clinical isolate; for susceptibility category: ASEC 3
MDR E. coli ASEC 4 = conditions: ref Asan hospital, cited from earlier work; for MIC: ASEC 4 (ESBL), resistance information of clinical isolate; for susceptibility category: ASEC 4
MDR E. coli ASEC 5 = conditions: ref Asan hospital, cited from earlier work; for MIC: ASEC 5 (ESBL), resistance information of clinical isolate; for susceptibility category: ASEC 5
MDR E. coli ASEC 6 = conditions: ref Asan hospital, cited from earlier work; for MIC: ASEC 6 (ESBL), resistance information of clinical isolate; for susceptibility category: ASEC 6
MDR E. coli ASEC 7 = conditions: ref Asan hospital, cited from earlier work; for MIC: ASEC 7 (ESBL), resistance information of clinical isolate; for susceptibility category: ASEC 7
MDR E. coli ASEC 8 = conditions: ref Asan hospital, cited from earlier work; for MIC: ASEC 8 (ESBL), resistance information of clinical isolate; for susceptibility category: ASEC 8
MDR E. coli ASEC 9 = conditions: ref Asan hospital, cited from earlier work; for MIC: ASEC 9 (ESBL), resistance information of clinical isolate; for susceptibility category: ASEC 9
MDR E. coli ASEC 10 = conditions: ref Asan hospital, cited from earlier work; for MIC: ASEC 10 (ESBL), resistance information of clinical isolate; for susceptibility category: ASEC 10
MDR E. coli ASEC 11 = conditions: ref Asan hospital, cited from earlier work; for MIC: ASEC 11 (ESBL), resistance information of clinical isolate; for susceptibility category: ASEC 11
MDR E. coli ASEC 12 = conditions: ref Asan hospital, cited from earlier work; for MIC: ASEC 12 (AmpC), resistance information of clinical isolate; for susceptibility category: ASEC 12
MDR E. coli ASEC 13 = conditions: ref Asan hospital, cited from earlier work; for MIC: ASEC 13 (AmpC), resistance information of clinical isolate; for susceptibility category: ASEC 13
MDR E. coli ASEC 14 = conditions: ref Asan hospital, cited from earlier work; for MIC: ASEC 14 (AmpC), resistance information of clinical isolate; for susceptibility category: ASEC 14
MDR E. coli ASEC 15 = conditions: ref Asan hospital, cited from earlier work; for MIC: ASEC 15 (AmpC), resistance information of clinical isolate; for susceptibility category: ASEC 15
MDR E. coli ASEC 16 = conditions: ref Asan hospital, cited from earlier work; for MIC: ASEC 16 (AmpC), resistance information of clinical isolate; for susceptibility category: ASEC 16
MDR E. coli ASEC 17 = conditions: ref Asan hospital, cited from earlier work; for MIC: ASEC 17 (AmpC), resistance information of clinical isolate; for susceptibility category: ASEC 17
MDR E. coli ASEC 18 = conditions: ref Asan hospital, cited from earlier work; for MIC: ASEC 18 (AmpC), resistance information of clinical isolate; for susceptibility category: ASEC 18
MDR E. coli ASEC 19 = conditions: ref Asan hospital, cited from earlier work; for MIC: ASEC 19 (AmpC), resistance information of clinical isolate; for susceptibility category: ASEC 19

Row | SMILES | MIC (MDR E. coli ASEC 1) | susceptibility category (MDR E. coli ASEC 1) | MIC (MDR E. coli ASEC 2) [µg/mL] | susceptibility category (MDR E. coli ASEC 2) | MIC (MDR E. coli ASEC 3) [µg/mL] | susceptibility category (MDR E. coli ASEC 3) | MIC (MDR E. coli ASEC 4) [µg/mL] | susceptibility category (MDR E. coli ASEC 4) | MIC (MDR E. coli ASEC 5) [µg/mL] | susceptibility category (MDR E. coli ASEC 5) | MIC (MDR E. coli ASEC 6) [µg/mL] | susceptibility category (MDR E. coli ASEC 6) | MIC (MDR E. coli ASEC 7) | susceptibility category (MDR E. coli ASEC 7) | MIC (MDR E. coli ASEC 8) | susceptibility category (MDR E. coli ASEC 8) | MIC (MDR E. coli ASEC 12) [µg/mL] | susceptibility category (MDR E. coli ASEC 12) | MIC (MDR E. coli ASEC 13) [µg/mL] | susceptibility category (MDR E. coli ASEC 13) | further results
1 | CO[C@@]1(NC(=O)Cc2cccs2)C(=O)N2C(C(=O)O)=C(COC(N)=O)CS[C@@H]21 [Cefoxitin] | > 16 µg/mL | R | > 16 | R | > 16 | R | > 16 | R | > 16 | R | > 16 | R | <= 8 μg mL-1 | S | <= 8 μg mL-1 | S | > 16 | R | > 16 | R | MIC (MDR E. coli ASEC 9): 16 µg/mL (≈ 37.4 µM); susceptibility category (MDR E. coli ASEC 9): I; MIC (MDR E. coli ASEC 10): <= 8 μg mL-1; susceptibility category (MDR E. coli ASEC 10): S; MIC (MDR E. coli ASEC 11): <= 8 μg mL-1; susceptibility category (MDR E. coli ASEC 11): S; MIC (MDR E. coli ASEC 14): > 16 µg/mL; susceptibility category (MDR E. coli ASEC 14): R; MIC (MDR E. coli ASEC 15): > 16 µg/mL; susceptibility category (MDR E. coli ASEC 15): R; MIC (MDR E. coli ASEC 16): > 16 µg/mL; susceptibility category (MDR E. coli ASEC 16): R; MIC (MDR E. coli ASEC 17): > 16 µg/mL; susceptibility category (MDR E. coli ASEC 17): R; MIC (MDR E. coli ASEC 18): > 16 µg/mL; susceptibility category (MDR E. coli ASEC 18): R; MIC (MDR E. coli ASEC 19): > 16 µg/mL; susceptibility category (MDR E. coli ASEC 19): R
2 | CO/N=C(\C(=O)N[C@@H]1C(=O)N2C(C(=O)O)=C(CSc3nc(=O)c(=O)[nH]n3C)CS[C@H]12)c1csc(N)n1 [Ceftriaxone] | > 32 µg/mL | R |  |  |  |  | > 32 | R | > 32 | R | > 32 | R |  |  |  |  | > 32 | R | > 32 | R | 
3 | C[C@@H](O)[C@H]1C(=O)N2C(C(=O)O)=C(SCCN=CN)C[C@H]12 [Imipenem] | <= 4 μg mL-1 | R | 8 (≈ 26.7 µM) | R | > 8 | R | > 8 | R | > 8 | R | > 8 | R | <= 1 μg mL-1 | S | <= 1 μg mL-1 | S | > 8 | R | > 8 | R | MIC (MDR E. coli ASEC 9): <= 1 μg mL-1; susceptibility category (MDR E. coli ASEC 9): S; MIC (MDR E. coli ASEC 10): <= 1 μg mL-1; susceptibility category (MDR E. coli ASEC 10): S; MIC (MDR E. coli ASEC 11): <= 1 μg mL-1; susceptibility category (MDR E. coli ASEC 11): S; MIC (MDR E. coli ASEC 14): 8 µg/mL (≈ 26.7 µM); susceptibility category (MDR E. coli ASEC 14): R; MIC (MDR E. coli ASEC 15): <= 1 μg mL-1; susceptibility category (MDR E. coli ASEC 15): S; MIC (MDR E. coli ASEC 16): <= 1 μg mL-1; susceptibility category (MDR E. coli ASEC 16): S; MIC (MDR E. coli ASEC 17): <= 1 μg mL-1; susceptibility category (MDR E. coli ASEC 17): S; MIC (MDR E. coli ASEC 18): <= 1 μg mL-1; susceptibility category (MDR E. coli ASEC 18): S; MIC (MDR E. coli ASEC 19): <= 1 μg mL-1; susceptibility category (MDR E. coli ASEC 19): S
